Experimental data reported in US20250011368A1, “DLL3 TARGETING PEPTIDES AND CONSTRUCTS THEREOF” (MARIANA ONCOLOGY INC., priority 2023, published 2025).
Numbered stars: 1 amine (or outer) side, 2 acyl side, 3 side chain; on linkers, the order of the positions; unused ones are H or OH. Bridge positions count the residues as written; N and C are the ends. Square brackets hold non-standard residues; d marks the D form. Peptide text beside a SMILES is read from it. * marks the point of attachment. DOTA = O=C(O)CN1CCN(CC(=O)O)CCN(CC(=O)*)CCN(CC(=O)O)CC1; Phe(4-CF3) = N[C@@H](Cc1ccc(C(F)(F)F)cc1)C(=O)O; Trp(5-F) = N[C@@H](Cc1c[nH]c2ccc(F)cc12)C(=O)O; Trp(7-aza) = N[C@@H](Cc1c[nH]c2ncccc12)C(=O)O; Pro(trans-4-F) = O=C(O)[C@@H]1C[C@@H](F)CN1; 2Nal = N[C@@H](Cc1ccc2ccccc2c1)C(=O)O; Nva(3-Et) = CCC(CC)[C@H](N)C(=O)O; CH2 = C([*:1])[*:2]

Experiments:
[1] = system: SHP-77 tumors; experiment: Ex vivo biodistribution of radiolabeled peptides in nude mice bearing SHP-77 tumors; conditions: [177Lu]Lu labelling, nude mice bearing SHP-77 tumors (n = 3), 24 hours post-injection
How it was run: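 Nude mice bearing SHP-77 xenografts (200-400 mm^3) or tumor-naïve mice (5-7 weeks) received an intravenous tail-vein bolus of [^177Lu]Lu-peptide and were euthanized at pre-set time points. Tissues were weighed and gamma-counted, with counts decay-corrected to injection time. Values are % IA/g per tissue from the injected activity of each mouse.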

[2] = system: CT26.DLL3 cells; experiment: Cell binding (total uptake) of [177Lu]Lu-test peptide, CT26.DLL3 cells; assay type: cell-based; conditions: 1 hour at 37° C.
How it was run: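 CT26.DLL3 cells (5–25 million/condition) in 1% PBSA incubated 1 h at 37°C with [177Lu]Lu-labelled peptide (0.8 μCi in 300 μL), radiolabelled at pH ~5, 80°C. Cells pelleted, washed twice with cold PBS+1% BSA; bound and unbound fractions gamma-counted, uptake binned as ≤25%, 25–50%, >50%.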

[3] = system: SHP-77 cells; experiment: Cell binding (total uptake) of [177Lu]Lu-test peptide, SHP-77 cells; assay type: cell-based; conditions: SHP77 cells, 1 hour at 37° C., bound fraction
Method: (§1) [^177Lu]LuCl3 was received from venders in HCl solution. For every mCi of [^177Lu]LuCl3 added to the reaction vial (1.5 mL Eppendorf vial), ammonium acetate buffer (0.2 M, pH 4.9, 100 μL, containing 1% w/v ascorbic acid and 6% v/v ethanol) and peptide conjugate (1 nmol). A peptide conjugate of the present disclosure is also referred to herein as a “chelator-peptide”. The pH of the solution was determined to be approximately 5 by using pH strips. The reaction vial was incubated at 80° C., 700 RPM for 17-20 minutes. A sample from the reaction was analyzed by RP-HPLC using an Agilent Infinity II 1260 HPLC to determine reaction completion and radiochemical purity of [^177Lu]Lu-chelator-peptide. HPLC conditions: Waters XBridge BEH C18 Column, 130 Å, 3.5 um, 4.6 mm×250 mm; mobile phase: Solvent A=water (with 0.1% formic acid), solvent B=acetonitrile (with 0.1% formic acid). Gradients: 25-45% B in 10 minutes, 45-65% B in 12 minutes, 65-90% in 6 minutes at a flow rate of 0.5 mL/minute. Required amounts of the product was formulated in 1% PBSA for cell studies.
(§2) The study was conducted using SHP-77, CT26.WT, and CT26.DLL3 cells (Table 7) Adherent cell studies: The cells were cultured in appropriate culture media (20 mL) in tissue culture treated T150 flasks at 37° C. and 5% CO2. Adherent cells were detached (60-70% confluent) using 5 mL Versene at 37° C. for 3 minutes. After confirming the viability using countess and count of detached cells using Trypan blue, the cells were centrifuged at 4° C. for 5 minutes (1,000 rpm). The cell pellet obtained was washed once with PBS and resuspended in 1% PBSA to obtain the desired cell concentration (5-25 million cells/mL).
Suspension cell studies: The cells were cultured in appropriate culture media (20 mL) in tissue culture treated T150 flasks at 37° C. and 5% CO2. After confirming the viability and count of detached cells using Trypan blue, the cells were centrifuged at 4° C. for 5 minutes (1,000 rpm). The cell pellet obtained was washed once with PBS and resuspended in 1% PBSA to obtain the desired cell concentration (5-25 million cells/mL).
(§3) Cell numbers used for the assay were in the range of 5 million cells/condition −25 million cells/condition.
(§4) Total uptake: Cells were incubated with 300 μL (0.8 μCi) of the incubation buffer (containing radiolabeled peptide [^177Lu] Lu-test peptide) for 1 hour at 37° C. (Table 8). Post incubation, the cells were pelleted and washed 2 times using cold PBS+1% BSA. The supernatant and washes were combined and counted together as “unbound fraction” in a gamma counter. The cells were then resuspended in 300 μL of 1% PBS+1% BSA and counted in the gamma counter as “bound fraction”.
(§5) In these Tables, “A” represents %≤25; “B” represents 25<%≤50; “C” represents %>50.

[4] = biological target: T1, human DLL3 (Homo sapiens, UniProt Q9NYJ7); experiment: Affinity determination by Surface Plasmon Resonance (SPR); assay type: binding; conditions: 25° C., biotinylated human DLL3 immobilized on streptavidin sensor chip, 1:1 binding model; read-out: SPR KD
T1 sequence (Q9NYJ7 27-618): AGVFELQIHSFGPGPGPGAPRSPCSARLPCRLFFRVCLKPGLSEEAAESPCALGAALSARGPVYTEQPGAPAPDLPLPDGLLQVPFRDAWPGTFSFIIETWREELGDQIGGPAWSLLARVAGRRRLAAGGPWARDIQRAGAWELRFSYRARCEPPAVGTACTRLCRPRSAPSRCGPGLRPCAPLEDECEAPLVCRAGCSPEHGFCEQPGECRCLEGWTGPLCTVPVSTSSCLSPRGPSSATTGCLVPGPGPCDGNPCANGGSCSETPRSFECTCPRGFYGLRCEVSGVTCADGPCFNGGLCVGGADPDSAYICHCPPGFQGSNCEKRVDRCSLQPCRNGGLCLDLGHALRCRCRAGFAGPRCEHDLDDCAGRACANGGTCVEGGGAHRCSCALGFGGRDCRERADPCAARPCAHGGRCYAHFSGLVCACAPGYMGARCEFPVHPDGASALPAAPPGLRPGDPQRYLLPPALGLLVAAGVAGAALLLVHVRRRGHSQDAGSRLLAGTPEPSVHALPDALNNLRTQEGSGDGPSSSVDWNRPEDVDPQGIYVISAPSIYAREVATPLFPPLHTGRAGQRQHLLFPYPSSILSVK
How it was run: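 Kinetic and affinity constants were derived by fitting sensorgrams to a 1:1 binding model. Graded compound concentrations flowed at 100 μL/minute in 20 mM phosphate running buffer with 2% DMSO over streptavidin-immobilized biotinylated human DLL3, reference-subtracted.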

[5] = system: CT26.DLL3 cells; experiment: Internalization (out of bound fraction) of [177Lu]Lu-test peptide, CT26.DLL3 cells; assay type: cell-based; conditions: 1 hour at 37° C., glycine pH 2.5 wash
Method: as §1, §2, §3, §4
Internalization: The resuspended cells in 300 μl of 1% PBSA and counted in the gamma counter as “bound fraction” were collected in 1.5 mL Eppendorf tube and pelleted. The pelleted cells were incubated with 300 μl of 50 mM Glycine pH=2.5 for 3 minutes and then pelleted discarding the supernatant. This process was repeated one more time. The pelleted cells were washed with 300 μl of cold 1% PBSA and then resuspended in 300 μl 0.3M NaOH. This was counted in the gamma counter as “internalized fraction”.
as §5

| SMILES | kidney uptake (% IA/g) [1] | tumor uptake (% IA/g) [1] | Kd [4] [nM] | % Binding [2] | % Binding [3] | % Internalization (out of bound fraction) [5] |
| --- | --- | --- | --- | --- | --- | --- |
| CC[C@H](C)[C@H](NC(=O)[C@@H](NC(=O)[C@H](Cc1c[nH]c2ccccc12)NC(C)=O)[C@@H](C)O)C(=O)N[C@H]1CSSC[C@@H](C(=O)N[C@@H](Cc2c[nH]c3ccccc23)C(=O)N2CCC[C@H]2C(=O)N[C@H](CCCCNC(=O)CN2CCN(CC(=O)O)CCN(CC(=O)O)CCN(CC(=O)O)CC2)C(N)=O)NC(=O)[C@H](CC(=O)O)NC(=O)[C@H](Cc2cnc[nH]2)NC(=O)[C@H](Cc2c[nH]c3ccccc23)NC(=O)[C@H](CC(N)=O)NC(=O)[C@H](CC(N)=O)NC1=O [compound 23, Ac-W-T-I-C(3)-N-N-W-H-D-C(3)-W-P-[D-Lys(DOTA)]-NH2] (Ac-WTICNNWHDCWP[dK](DOTA)-NH2; disulfide 4-10) | D (% IA/g > 10 in kidney) | A (0 < % IA/g ≤ 5 in tumor) | 1 to 10 | A (%≤25) | A (%≤25) |  |
| CC[C@H](C)[C@H](NC(=O)[C@@H](NC(=O)[C@H](Cc1c[nH]c2ccccc12)NC(C)=O)[C@@H](C)O)C(=O)N[C@H]1CSSC[C@@H](C(=O)N[C@@H](Cc2c[nH]c3ccccc23)C(=O)N2CCC[C@H]2C(=O)N[C@H](CCCCNC(=O)CN2CCN(CC(=O)O)CCN(CC(=O)O)CCN(CC(=O)O)CC2)C(N)=O)NC(=O)[C@H](CC(=O)O)NC(=O)[C@H](Cc2cnc[nH]2)NC(=O)[C@H](Cc2ccc3ccccc3c2)NC(=O)[C@H](CC(N)=O)NC(=O)[C@H](CC(N)=O)NC1=O [compound 75, Ac-W-T-I-C(3)-N-N-(2Nal)-H-D-C(3)-W-P-[D-Lys(DOTA)]-NH2] (Ac-WTICNN[2Nal]HDCWP[dK](DOTA)-NH2; disulfide 4-10) | D (% IA/g > 10 in kidney) | A (0 < % IA/g ≤ 5 in tumor) | 1 to 10 | B (25<%≤50) | A (%≤25) | B (25<%≤50) |
| CCC(CC)[C@H](NC(=O)[C@@H](NC(=O)[C@H](Cc1c[nH]c2ccc(F)cc12)NC(C)=O)[C@@H](C)O)C(=O)N[C@H]1CSSC[C@@H](C(=O)N[C@@H](Cc2c[nH]c3ncccc23)C(=O)N2C[C@H](F)C[C@H]2C(=O)N[C@H](CCCCNC(=O)CN2CCN(CC(=O)O)CCN(CC(=O)O)CCN(CC(=O)O)CC2)C(N)=O)NC(=O)[C@H](CC(=O)O)NC(=O)[C@H](Cc2cnc[nH]2)NC(=O)[C@H](Cc2ccc(C(F)(F)F)cc2)NC(=O)[C@H](CC(N)=O)NC(=O)[C@H](CC(N)=O)NC1=O [compound 146, Ac-(5Fluoro-W)-T-(Env)-C(3)-N-N-(4CF3-F)-H-D-C(3)-(7Aza-W)-(trans4Fluoro-P)-[D-Lys(DOTA)]-NH2] (Ac-[Trp(5-F)]T[Nva(3-Et)]CNN[Phe(4-CF3)]HDC[Trp(7-aza)][Pro(trans-4-F)][dK](DOTA)-NH2; disulfide 4-10) | C (0 < % IA/g ≤ 10 in kidney) | A (0 < % IA/g ≤ 5 in tumor) | < 1 |  | A (%≤25) |  |

More lines, main results first:

| kidney uptake (% IA/g) [1] | tumor uptake (% IA/g) [1] | Kd [4] [nM] | SMILES | % Binding [2] | % Binding [3] | % Internalization (out of bound fraction) [5] |
| --- | --- | --- | --- | --- | --- | --- |
|  |  | < 1 | CC[C@H](C)[C@H](NC(=O)[C@@H](NC(=O)[C@H](Cc1c[nH]c2ccccc12)NC(C)=O)[C@@H](C)O)C(=O)N[C@H]1CSCSC[C@@H](C(=O)N[C@@H](Cc2c[nH]c3ccccc23)C(=O)N2CCC[C@H]2C(=O)N[C@H](CCCCNC(=O)CN2CCN(CC(=O)O)CCN(CC(=O)O)CCN(CC(=O)O)CC2)C(N)=O)NC(=O)[C@H](CC(=O)O)NC(=O)[C@H](Cc2cnc[nH]2)NC(=O)[C@H](Cc2ccc3ccccc3c2)NC(=O)[C@H](CC(N)=O)NC(=O)[C@H](CC(N)=O)NC1=O [compound 165, Ac-WTI-C(1)-NN(2Nal)HD-C(1)-WP-[D-Lys(DOTA)]-NH2] (Ac-WTICNN[2Nal]HDCWP[dK](DOTA)-NH2; linker 4-10 via CH2) |  | A (%≤25) |  |
|  |  | < 1 | CC[C@H](C)[C@H](NC(=O)[C@@H](NC(=O)[C@H](Cc1c[nH]c2ccccc12)NC(C)=O)[C@@H](C)O)C(=O)N[C@H]1CSSC[C@@H](C(=O)N[C@@H](Cc2c[nH]c3ccccc23)C(=O)N2CCC[C@H]2C(=O)N[C@@H](CCCCNC(=O)CN2CCN(CC(=O)O)CCN(CC(=O)O)CCN(CC(=O)O)CC2)C(N)=O)NC(=O)[C@H](CC(=O)O)NC(=O)[C@H](Cc2cnc[nH]2)NC(=O)[C@H](Cc2ccc3ccccc3c2)NC(=O)[C@H](CC(N)=O)NC(=O)[C@H](CC(N)=O)NC1=O [compound 166, Ac-W-T-I-C(3)-N-N-(2Nal)-H-D-C(3)-W-P-[L-Lys(DOTA)]-NH2] (Ac-WTICNN[2Nal]HDCWPK(DOTA)-NH2; disulfide 4-10) |  | A (%≤25) |  |
